Source: patent US20260102380A1, “Synthesis and Characterization of Cyclic Hydrocarbon Esters of Everolimus” (BIOTRONIK AG, priority 2022, published 2026)
Several values for one entry are separate records, joined by “and”; a condition that tells them apart may be missing. Equal entries are not always repeated. Where two headings read alike, the source gives them in different places.

Columns and labels:
[1] = Elution study on porcine coronary artery; conditions: for Percent of Drug Eluted Over Time: samples 1 and 2
Method: (§1) To examine the effects of certain formulations of the present invention on porcine coronary artery samples, the samples were each prepared as follows:
(§2) Elution Media Preparation: Normal saline was prepared by weighing 4.5 grams of sodium chloride into a 500 mL Pyrex® bottle. 495.5 grams HPLC water was added to the 500 ml bottle. The bottle was then capped and vigorously shaken. 25% ethanol/saline elution media was prepared by weighing 25.0 grams of ethanol (200 proof) into a 100 mL Pyrex® bottle. 75.0 grams of normal saline was added to the 100 ml bottle containing ethanol. The bottle was capped and vigorously shaken.
(§3) Elution Method: Porcine coronary arterial vessels were obtained and dissected from hearts obtained from the butcher shop. Coronary arteries were flash frozen with dry ice then stored at −80° C. When ready for testing, arteries were removed from the freezer and allowed to thaw at room temperature. Any fat and muscle tissue were carefully removed using scissors and tweezers. Vessels were rinsed several times with normal saline containing 0.05% sodium azide.
(§4) Vessels were then cut into 1 cm sections. 5 μL of formulation (approximately 125 μg of drug) was carefully added onto the outer part of the tissue using a 10 μL Hamilton® syringe. Ethanol was allowed to evaporate at room temperature for 15-20 minutes.
(§5) Tissue was then placed into a 7 mL glass vial. 2 mL elution media, previously warmed to 37° C., was added carefully to each vial using an Eppendorf® pipette. Each vial was capped and placed in a 37° C. incubator and gently shaken at 100 spm (strokes per minute).
(§6) At certain time points, elution media was removed and fresh 2 mL media (at 37° C.) was slowly added to the vial.
(§7) Drug formulations in ethanol were applied (approximately 125 μg) onto previously frozen “butcher shop” porcine coronary arterial vessel and allowed to dry after 15-20 minutes.

[2] = pig
Method: as §1, §2, §3, §4, §5, §6, §7

SMILES | Percent of Drug Eluted Over Time ([1]; 0.5 hours, approx. 125 μg drug on 1 cm vessel section, 25% ethanol/saline, 37° C.) | Percent of Drug Eluted Over Time ([1]; 1 hour, approx. 125 μg drug on 1 cm vessel section, 25% ethanol/saline, 37° C.) | Percent of Drug Eluted Over Time ([1]; 2 hours, approx. 125 μg drug on 1 cm vessel section, 25% ethanol/saline, 37° C.) | Percent of Drug Eluted Over Time ([1]; 3 hours, approx. 125 μg drug on 1 cm vessel section, 25% ethanol/saline, 37° C.) | Percent of Drug Eluted Over Time ([1]; 23 hours, approx. 125 μg drug on 1 cm vessel section, 25% ethanol/saline, 37° C.) | Percent of Drug Eluted Over Time ([1]; Extract (after extraction, following 23 hours of elution)) | Elution behavior from vessel tissue (in words) ([1]; porcine coronary arterial tissue, 25% ethanol/saline, 37° C.) | Elution behavior from vessel tissue (in words) [2] | Time within which most of the drug eluted off the tissue [2] [h]
CO[C@H]1C[C@@H]2CC[C@@H](C)[C@@](O)(O2)C(=O)C(=O)N2CCCC[C@H]2C(=O)O[C@H]([C@H](C)C[C@@H]2CC[C@@H](OCCO)[C@H](OC)C2)CC(=O)[C@H](C)/C=C(\C)[C@@H](O)[C@@H](OC)C(=O)[C@H](C)C[C@H](C)/C=C/C=C/C=C/1C [Everolimus] | 77% and 71% | 86% and 76% | 87% and 79% | 88% and 80% | 89% and 80% | 89% and 81% | eluting significantly faster than CRC-023 |  | 
CO[C@H]1C[C@@H]2CC[C@@H](C)[C@@](O)(O2)C(=O)C(=O)N2CCCC[C@H]2C(=O)O[C@H]([C@H](C)C[C@@H]2CC[C@@H](O)[C@H](OC)C2)CC(=O)[C@H](C)/C=C(\C)[C@@H](O)[C@@H](OC)C(=O)[C@H](C)C[C@H](C)/C=C/C=C/C=C/1C [Sirolimus] |  |  |  |  |  |  |  | eluting significantly faster than CRC-023 | ≤ 2
